Data taken from patent US20160251725A1, “METHOD FOR PREDICTING CLINICAL TOXICITY AND OUTCOME” (AGENCY FOR SCIENCE, TECHNOLOGY AND RESEARCH, priority 2013, published 2016).

Columns and labels:
[1] = tested on: mRCC patients; test: Tumor response to sunitinib (RECIST version 1.1), clinical benefit / primary resistance; type: in vivo, human
Method: (§1) Twelve patients in this study received a starting dose of 50 mg daily. Six patients started with 25 mg daily due to advanced age or patients' aversion to expected toxicities.
Patient characteristics were also collected including age, gender, ethnicity, body weight and height, and Eastern Cooperative Oncology Group (ECOG) performance status. Memorial Sloan-Kettering Cancer Center (MSKCC) prognostic score was calculated for each patient with available data. All the collected data were de-identified by a third party before being used in statistical analysis. The follow-up period ended at the end of April, 2014.
(§2) Genotype associations with toxicity events or responsive tumor were first analyzed using univariate logistic regression. Genotypes generating P<0.20 were further analyzed using multivariate logistic regression including patient age, gender, baseline ECOG status and starting dose as covariates. Progression-free survival and overall survival were estimated by means of Kaplan-Meier method, while the associations of genotypes and patient characteristics with PFS and OS were analyzed using two-tailed log rank test. The effects of genotypes on the progression-free survival and overall survival were then evaluated using multivariate Cox regression model by including genotypes and patient characteristics with P<0.05 in univariate analysis. […] In all analyses, missing data were kept missing except for baseline ECOG status, which was replaced with the median value. As this was designed as a validation study of previously observed correlations rather than an exploratory evaluation, multiple testing correction was not done.

[2] = tested on: mRCC patients; test: Progression-free and overall survival on first-line sunitinib (Kaplan-Meier, Cox regression); type: in vivo, human; conditions: for Overall survival HR multivariate / Progression-free survival HR multivariate: starting dose as covariate
Method: as §1, §2

[3] = ABCB1 haplotype TTT/TTT vs Other
[4] = ABCB1 haplotype TTT/TTT (homozygous carriers)

With `CCN(CC)CCNC(=O)c1c(C)[nH]c(/C=C2\C(=O)Nc3ccc(F)cc32)c1C` [sunitinib] the Clinical benefit prevalence ([1]; ABCB1 2677 G/TA Other) was 55/79, the Clinical benefit prevalence ([1]; ABCB1 2677 G/TA TT) was 4/11 and the “Clinical benefit OR multivariate” value ([1]; ABCB1 2677 TT vs Other) was 0.1. The “Clinical benefit OR univariate” value ([1]; ABCB1 2677 TT vs Other) was 0.3, the Clinical benefit prevalence ([1]; ABCB1 3435 C/T CC + CT) was 54/78 and the Clinical benefit prevalence ([1]; ABCB1 3435 C/T TT) was 5/12. For the same compound, the “Clinical benefit OR multivariate” value ([1]; ABCB1 3435 TT vs CC + CT) was 0.2, the “Clinical benefit OR univariate” value ([1]; ABCB1 3435 TT vs CC + CT) was 0.3 and the Clinical benefit prevalence ([1]; ABCB1 haplotype Other) was 57/82. The Clinical benefit prevalence ([1]; ABCB1 haplotype TTT/TTT) was 2/8, the “Clinical benefit OR multivariate” value [1, 3] was 0.1 and the “Clinical benefit OR univariate” value [1, 3] was 0.2. For the same compound, the “Clinical benefit OR univariate” value ([1]; Age) was 1.0, the Clinical benefit prevalence ([1]; Baseline ECOG 0) was 20/25 and the Clinical benefit prevalence ([1]; Baseline ECOG 1) was 31/49. The “Clinical benefit OR univariate” value ([1]; Baseline ECOG 1 vs 0) was 0.4, the Clinical benefit prevalence ([1]; Baseline ECOG 2) was 5/11 and the “Clinical benefit OR univariate” value ([1]; Baseline ECOG 2 vs 0) was 0.2. The Clinical benefit prevalence ([1]; Baseline ECOG 3) was 3/5, the “Clinical benefit OR univariate” value ([1]; Baseline ECOG 3 vs 0) was 0.4 and the “Clinical benefit OR univariate” value ([1]; Female vs Male) was 1.2. The Clinical benefit prevalence ([1]; Gender Female) was 13/19, the Clinical benefit prevalence ([1]; Gender Male) was 46/71 and the Clinical benefit prevalence ([1]; Starting dose 37.5 mg) was 49/75. For the same compound, the Clinical benefit prevalence ([1]; Starting dose 50 mg) was 9/11, the “Clinical benefit OR univariate” value ([1]; Starting dose 37.5 vs ≦37.5 mg) was 5.7 and the Clinical benefit prevalence ([1]; Starting dose ≦37.5 mg) was 1/4. For the same compound, the “Clinical benefit prevalence (cases with PR or SD as best response/total in group)” value ([1]; all patients (n = 90)) was 59/90, the Median overall survival ([2]; ABCB1 1236 T/C CC + CT) was 20 months and the Median progression-free survival ([2]; ABCB1 1236 T/C CC + CT) was 11.7 months. The Median overall survival ([2]; ABCB1 1236 T/C TT) was 10.4 months, the Median progression-free survival ([2]; ABCB1 1236 T/C TT) was 3.6 months and the “Overall survival HR univariate” value ([2]; ABCB1 1236 TT vs CC + CT) was 1.7. For the same compound, the “Progression-free survival HR univariate” value ([2]; ABCB1 1236 TT vs CC + CT) was 1.7, the “Overall survival HR multivariate” value ([2]; ABCB1 1236 TT vs CC + CT) was 1.7 and the “Progression-free survival HR multivariate” value ([2]; ABCB1 1236 TT vs CC + CT) was 1.7. The Median overall survival ([2]; ABCB1 2677 G/TA Other) was 19.6 months, the Median progression-free survival ([2]; ABCB1 2677 G/TA Other) was 8.4 months and the Median overall survival ([2]; ABCB1 2677 G/TA TT) was 5.9 months. For the same compound, the Median progression-free survival ([2]; ABCB1 2677 G/TA TT) was 2.7 months, the “Overall survival HR univariate” value ([2]; ABCB1 2677 TT vs Other) was 2.9 and the “Progression-free survival HR univariate” value ([2]; ABCB1 2677 TT vs Other) was 2.3. The “Overall survival HR multivariate” value ([2]; ABCB1 2677 TT vs Other) was 2.0, the “Progression-free survival HR multivariate” value ([2]; ABCB1 2677 TT vs Other) was 1.5 and the Median overall survival ([2]; ABCB1 3435 C/T CC + CT) was 19.5 months. It also gave a Median progression-free survival ([2]; ABCB1 3435 C/T CC + CT) of 8.4 months, a Median overall survival ([2]; ABCB1 3435 C/T TT) of 7.2 months and a Median progression-free survival ([2]; ABCB1 3435 C/T TT) of 2.7 months. For the same compound, the “Overall survival HR univariate” value ([2]; ABCB1 3435 TT vs CC + CT) was 1.6, the “Progression-free survival HR univariate” value ([2]; ABCB1 3435 TT vs CC + CT) was 1.7 and the “Overall survival HR multivariate” value ([2]; ABCB1 3435 TT vs CC + CT) was 1.7. The “Progression-free survival HR multivariate” value ([2]; ABCB1 3435 TT vs CC + CT) was 1.7, the Median overall survival ([2]; ABCB1 haplotype Other) was 19.6 months and the Median progression-free survival ([2]; ABCB1 haplotype Other) was 8.4 months. For the same compound, the Median overall survival [2, 4] was 4.6 months, the Median progression-free survival [2, 4] was 2.4 months and the “Overall survival HR univariate” value [2, 3] was 3.9. The “Progression-free survival HR univariate” value [2, 3] was 4.9, the “Overall survival HR multivariate” value [2, 3] was 5.0 and the “Progression-free survival HR multivariate” value [2, 3] was 5.5. The “Overall survival HR univariate” value ([2]; Age) was 1.0, the “Progression-free survival HR univariate” value ([2]; Age) was 1.0 and the Median overall survival ([2]; Baseline ECOG 0) was 32.9 months. It also gave a Median progression-free survival ([2]; Baseline ECOG 0) of 16.1 months, a Median overall survival ([2]; Baseline ECOG 1) of 19.6 months and a Median progression-free survival ([2]; Baseline ECOG 1) of 6.9 months. For the same compound, the “Overall survival HR univariate” value ([2]; Baseline ECOG 1 vs 0) was 1.9, the “Progression-free survival HR univariate” value ([2]; Baseline ECOG 1 vs 0) was 2.2 and the Median overall survival ([2]; Baseline ECOG 2) was 5.7 months. The Median progression-free survival ([2]; Baseline ECOG 2) was 3.3 months, the “Overall survival HR univariate” value ([2]; Baseline ECOG 2 vs 0) was 3.0 and the “Progression-free survival HR univariate” value ([2]; Baseline ECOG 2 vs 0) was 2.8. For the same compound, the Median overall survival ([2]; Baseline ECOG 3) was 15.7 months, the Median progression-free survival ([2]; Baseline ECOG 3) was 12.9 months and the “Overall survival HR univariate” value ([2]; Baseline ECOG 3 vs 0) was 2.7. For the same compound, the “Progression-free survival HR univariate” value ([2]; Baseline ECOG 3 vs 0) was 2.8, the Median overall survival ([2]; Gender Female) was 19.9 months and the Median progression-free survival ([2]; Gender Female) was 10.0 months. For the same compound, the Median overall survival ([2]; Gender Male) was 16.3 months, the Median progression-free survival ([2]; Gender Male) was 8.1 months and the Median overall survival ([2]; MSKCC Good) was 41.4 months. For the same compound, the Median progression-free survival ([2]; MSKCC Good) was 12.6 months, the Median overall survival ([2]; MSKCC Intermediate) was 19.6 months and the Median progression-free survival ([2]; MSKCC Intermediate) was 10.0 months. For the same compound, the “Overall survival HR univariate” value ([2]; MSKCC Intermediate vs Good) was 2.2, the “Progression-free survival HR univariate” value ([2]; MSKCC Intermediate vs Good) was 1.3 and the Median overall survival ([2]; MSKCC Poor) was 14 months. For the same compound, the Median progression-free survival ([2]; MSKCC Poor) was 5.5 months, the “Overall survival HR univariate” value ([2]; MSKCC Poor vs Good) was 3.1 and the “Progression-free survival HR univariate” value ([2]; MSKCC Poor vs Good) was 2.3. The “Overall survival HR univariate” value ([2]; Male vs Female) was 1.1, the “Progression-free survival HR univariate” value ([2]; Male vs Female) was 1.1 and the Median overall survival ([2]; Starting dose 37.5 mg) was 19.5 months. It also gave a Median progression-free survival ([2]; Starting dose 37.5 mg) of 8.3 months, a Median overall survival ([2]; Starting dose 50 mg) of 47.4 months and a Median progression-free survival ([2]; Starting dose 50 mg) of 17.3 months. The “Overall survival HR univariate” value ([2]; Starting dose 37.5 vs ≦37.5 mg) was 0.2, the “Overall survival HR univariate” value ([2]; Starting dose 50 vs ≦37.5 mg) was 0.1 and the Median overall survival ([2]; Starting dose ≦37.5 mg) was 4.6 months. The Median progression-free survival ([2]; Starting dose ≦37.5 mg) was 1.8 months, the Median overall survival ([2]; all 81 first-line patients) was 19.5 months and the Median progression-free survival ([2]; all 81 first-line patients) was 8.1 months.
